One test addresses T1, KRAS^G12C (Homo sapiens, UniProt P01116, G12C).
T1 construct: KRASG12C (aa 1–169, G12C) were produced for the biochemical assay; made in house
Description: Biochemical assay: KRAS^G12C activation by SOS1CAT (HTRF, fluorescent GTP loading). Conditions: 180 min pre-incubation with KRAS before addition of SOS1. Here is the method:
(§1) One of the most synthetically accessible compounds, 1,6‐naphthyridin‐5(6H)‐one (1), was prepared (Table 1; Scheme S1). Structurally close to 1, isoquinolin‐1(2H)‐one 2 derivatives were also considered for the exploration of structure‐activity relationships (SAR). To measure the proportion of inhibitor reacting with Cys12 of the KRAS^G12C mutant, the bound/unbound protein ratio was quantified by mass spectrometry (MS). Then, the inhibition potency of these compounds towards KRAS^G12C was evaluated in biochemical assays measuring the activation of GDP‐bound KRAS^G12C or KRAS^WT by SOS1.19 […]
(§2) 3.3 Biochemical activity assays
(§3) Measurement of (i) KRASG12C activation by SOS1CAT and (ii) wild-type KRAS activation by SOS1CAT was performed following the previously described protocol, [19] with a pre-incubation time of the test compound with KRAS proteins extended to 180 min before addi tion of SOS1.
(§4) This assay quantifies SOS1 CAT mediated loading of KRAS G12C–GDP with a fluorescent GTP analogue. Detection of successful loading was achieved by measuring resonance energy transfer from anti-GST-terbium (FRET donor) bound to GST -KRASG12C to the loaded fluorescent GTP analogue (FRET acceptor). The fluorescent GTP analogue EDA –GTP–DY-647P1 [2'/3'-O-(2-aminoethyl-carbamoyl)guanosine-5'-triphosphate labelled with DY-647P1 (Dyomics GmbH, Germany)] was synthesized by Jena Bioscience (Germany) a nd supplied as a 1 mM aqueous solution. A KRASG12C working solution was prepared in assay buffer [10 mM HEPES pH 7.4 (AppliChem), 150 mM NaCl (Sigma), 5 mM MgCl2 (Sigma), 1 mM DTT (Thermo Fisher), 0.05% BSA Fraction V pH 7.0 (ICN Biomedicals), 0.0025% (v/v) Igepal (Sigma)] containing 100 nM GST-KRASG12C and 2 nM anti-GST-terbium (Cisbio, France). A SOS1 CAT working solution was prepared in an assay buffer containing 20 nM SOS1CAT and 200 nM EDA–GTP–DY-647P1. An inhibitor control solution was prepared in an assay buffer containing 200 nM EDA–GTP–DY-647P1 without […]
SOS1CAT. All steps of the assay were performed at 20 °C. A volume of 2.5 µL of the KRASG12C working solution was added to all wells of the test plate using a Multidrop dispenser (Thermo LabSystems). After 180 min, 2.5 µL of the SOS1CAT working solution was added to all wells, except for the inhibitor control solution wells. After 30 min incubation, HTRF was measured. […]
(§5) SYNAPT G2-S quadrupole time-of-flight mass spectrometer connected to a Waters nanoAcquity UPLC system. Samples were loaded on a 2.1 x 5 mm mass prep C4 guard column (Waters) and desalted with a short grad ient (3 min) of increasing concentrations of acetonitrile at a flow rate of 100 µL/min. Spectra were analyzed by using MassLynx v4.1 software and deconvoluted with the MaxEnt1 algorithm. Percent of conversion was determined by the ratio of signal intensiti es of apo-KRAS and KRAS + inhibitor.
For orientation: In TR-FRET formats the signal depends on donor and acceptor labels being close together.

The target of the next test is T2, KRAS^WT (Homo sapiens, UniProt P01116).
T2 construct: The proteins KRASWT (aa 1–169, wild type), SOS1CAT (aa 564–); made in house
Description: Biochemical assay: KRAS^WT activation by SOS1CAT (HTRF, fluorescent GTP loading). Conditions: 180 min pre-incubation with KRAS before addition of SOS1. Here is the method:
as §1, §2, §3, §4
SOS1CAT. All steps of the assay were performed at 20 °C. A volume of 2.5 µL of the KRASG12C working solution was added to all wells of the test plate using a Multidrop dispenser (Thermo LabSystems). After 180 min, 2.5 µL of the SOS1CAT working solution was added to all wells, except for the inhibitor control solution wells. After 30 min incubation, HTRF was measured.
In the KRASWT activation by SOS1cat assay, human SOS1CAT mediated loading of GST-KRASWT– GDP was quantified with a fluorescent GTP analogue. The assay was performed as described above for the KRASG12C activation. […]
as §5

This is an account of results in article PMC7318243, “Computationally Empowered Workflow Identifies Novel Covalent Allosteric Binders for KRAS^G12C” (Chemmedchem, 2020).

The IC50 is the midpoint of a concentration-inhibition curve. A high value points to weaker potency.

T1 sequence (P01116 1-169 isoform P01116-2 G12C): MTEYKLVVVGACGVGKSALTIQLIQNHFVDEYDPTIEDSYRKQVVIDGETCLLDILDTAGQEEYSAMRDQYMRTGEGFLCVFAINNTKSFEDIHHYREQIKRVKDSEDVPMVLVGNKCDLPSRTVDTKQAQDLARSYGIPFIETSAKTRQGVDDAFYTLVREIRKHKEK
T2 sequence (P01116 1-169 isoform P01116-2): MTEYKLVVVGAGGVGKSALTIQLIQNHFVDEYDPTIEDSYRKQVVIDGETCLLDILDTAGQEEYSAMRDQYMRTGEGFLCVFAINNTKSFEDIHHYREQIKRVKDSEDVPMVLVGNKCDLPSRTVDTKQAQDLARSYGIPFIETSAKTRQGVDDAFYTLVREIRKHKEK

On to `C=CC(=O)N1CCC(c2cc3ncc(-c4c(O)cccc4F)cc3c(=O)[nH]2)C1` (stereo not drawn) [Compound 1, 3-(2-Fluoro-6-hydroxyphenyl)-7-[1-(prop-2-enoyl)pyrrolidin-3-yl]-1,6-naphthyridin-5(6H)-one], for which the IC50 is 2.8 µM on KRAS^G12C and greater than 20 µM at KRAS^WT.
In the case of `C=CC(=O)N1CCC(c2cc3ccc(-c4c(O)cccc4F)cc3c(=O)[nH]2)C1` (stereo not drawn) [Compound 2, 7-(2-Fluoro-6-hydroxyphenyl)-3-[1-(prop-2-enoyl)pyrrolidin-3-yl]isoquinolin-1(2H)-one], the IC50 on KRAS^G12C is 4.7 µM; against KRAS^WT, greater than 20 µM.
Regarding `C=CC(=O)N1CCC(c2cc3cnc(-c4c(O)cccc4F)cc3c(=O)[nH]2)C1` (stereo not drawn) [Compound 13, 7-(2-Fluoro-6-hydroxyphenyl)-3-[1-(prop-2-enoyl)pyrrolidin-3-yl]-2,6-naphthyridin-1(2H)-one], the IC50 against KRAS^G12C was 1.3 µM; against KRAS^WT, greater than 20 µM.
